Assay results: ChEMBL document CHEMBL1201862, “PubChem BioAssay data set” (2004)
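Method: 48-hour compound exposure of cells in 96-well plates, five concentrations, linear interpolation of endpoints. GI50 = concentration required for 50% inhibition of growth.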 Activity calls are given as the source filed them. No stated cut-off is given here; in the data, active = GI50 up to about 1.1 µM and inactive = higher.

Experiments:
Experiment in all cases: growth of human tumour cells (NCI), 48 h
MDA-MB-435 = test system: MDA-MB-435
SW-620 = test system: SW-620
MOLT-4 = test system: MOLT-4
K562 = test system: K562
Malme-3M = test system: Malme-3M
CAKI-1 = test system: CAKI-1
T47D = test system: T47D
NCI-H460 = test system: NCI-H460
UACC-257 = test system: UACC-257
SK-MEL-2 = test system: SK-MEL-2
OVCAR-3 = test system: OVCAR-3
BT-549 = test system: BT-549
ACHN = test system: ACHN
OVCAR-8 = test system: OVCAR-8
A549 = test system: A549
SR = test system: SR
SF-295 = test system: SF-295
TK-10 = test system: TK-10
CCRF-CEM = test system: CCRF-CEM

SMILES | GI50 (MDA-MB-435) | GI50 (SW-620) | GI50 (MOLT-4) | GI50 (K562) | GI50 (Malme-3M) | GI50 (CAKI-1) | GI50 (T47D) | GI50 (NCI-H460) | GI50 (UACC-257) | GI50 (SK-MEL-2) | GI50 (OVCAR-3) | GI50 (BT-549) | GI50 (ACHN) | GI50 (OVCAR-8) | GI50 (A549) | GI50 (SR) | GI50 (SF-295) | GI50 (TK-10) | GI50 (CCRF-CEM)
O=C(O)CSCCc1ccccc1 | > 100 µM (inactive) | > 100 µM (inactive) | > 100 µM (inactive) | > 100 µM (inactive) | > 100 µM (inactive) | > 100 µM (inactive) | > 100 µM (inactive) | > 100 µM (inactive) | > 100 µM (inactive) | > 100 µM (inactive) | > 100 µM (inactive) | > 100 µM (inactive) | > 100 µM (inactive) | > 100 µM (inactive) | > 100 µM (inactive) | > 100 µM (inactive) | > 100 µM (inactive) | > 100 µM (inactive) | –
Cc1ccc(-c2[nH]c(=O)n(C3OC(CO)C(O)C(O)C3O)c(=O)c2C#N)cc1 (centres undefined) | > 100 µM (inactive) | > 100 µM (inactive) | > 100 µM (inactive) | > 100 µM (inactive) | – | > 100 µM (inactive) | > 100 µM (inactive) | > 100 µM (inactive) | > 100 µM (inactive) | > 100 µM (inactive) | > 100 µM (inactive) | > 100 µM (inactive) | > 100 µM (inactive) | > 100 µM (inactive) | > 100 µM (inactive) | 95.3 µM (inactive) | > 100 µM (inactive) | > 100 µM (inactive) | > 100 µM (inactive)
CC[C@H]1OC([C@H](O)C/C=C\C#C[Si](C)(C)C)C/C=C\C[C@H]1O[Si](C)(C)C(C)(C)C (some centres undefined) | > 100 µM (inactive) | > 100 µM (inactive) | > 100 µM (inactive) | > 100 µM (inactive) | > 100 µM (inactive) | > 100 µM (inactive) | > 100 µM (inactive) | > 100 µM (inactive) | – | > 100 µM (inactive) | > 100 µM (inactive) | > 100 µM (inactive) | > 100 µM (inactive) | > 100 µM (inactive) | > 100 µM (inactive) | > 100 µM (inactive) | > 100 µM (inactive) | – | 43.3 µM (inactive)
CC#CCCCC1(C)CCCNC1=S (centres undefined) | > 10 µM (inactive) | > 10 µM (inactive) | > 10 µM (inactive) | > 10 µM (inactive) | > 10 µM (inactive) | – | > 10 µM (inactive) | > 10 µM (inactive) | > 10 µM (inactive) | > 10 µM (inactive) | > 10 µM (inactive) | > 10 µM (inactive) | > 10 µM (inactive) | > 10 µM (inactive) | > 10 µM (inactive) | > 10 µM (inactive) | > 10 µM (inactive) | > 10 µM (inactive) | > 10 µM (inactive)
O=C1/C(=C/c2ccccc2[N+](=O)[O-])N=C(c2ccccc2)N1C1Nc2cc3c(cc2S1)NC(N1C(=O)/C(=C/c2ccccc2[N+](=O)[O-])N=C1c1ccccc1)S3 (centres undefined) | 51.6 µM (inactive) | 50.4 µM (inactive) | 19.3 µM (inactive) | 37.1 µM (inactive) | – | 39.7 µM (inactive) | 25.1 µM (inactive) | 5.45 µM (inactive) | 91 µM (inactive) | 36.8 µM (inactive) | 37.2 µM (inactive) | 40.4 µM (inactive) | 28.4 µM (inactive) | 39.5 µM (inactive) | 12.6 µM (inactive) | 8.51 µM (inactive) | 63.8 µM (inactive) | 72.4 µM (inactive) | –
OC(c1ccccc1)C(F)(F)c1nc2ccccc2o1 (centres undefined) | 82 µM (inactive) | > 100 µM (inactive) | 57.3 µM (inactive) | 27.9 µM (inactive) | – | > 100 µM (inactive) | 55.3 µM (inactive) | > 100 µM (inactive) | > 100 µM (inactive) | > 100 µM (inactive) | – | > 100 µM (inactive) | > 100 µM (inactive) | > 100 µM (inactive) | – | > 100 µM (inactive) | > 100 µM (inactive) | > 100 µM (inactive) | 61.2 µM (inactive)
O=C1/C(=C/C=C/c2ccccc2)CCC1CNc1ccccc1 (centres undefined) | 40.8 µM (inactive) | 18.4 µM (inactive) | 20.3 µM (inactive) | 2.71 µM (inactive) | 58.6 µM (inactive) | 40.2 µM (inactive) | 26.2 µM (inactive) | > 88.7 µM (inactive) | 42.5 µM (inactive) | – | 23.7 µM (inactive) | 32.1 µM (inactive) | 76.9 µM (inactive) | 37.4 µM (inactive) | > 66.2 µM (inactive) | 3.52 µM (inactive) | > 100 µM (inactive) | 33 µM (inactive) | 3.48 µM (inactive)
COc1ccc(/C=N\N2CC(=O)N3C4C=CC(CC4)N3C2=O)cc1 (centres undefined) | > 100 µM (inactive) | > 100 µM (inactive) | > 100 µM (inactive) | > 100 µM (inactive) | – | > 100 µM (inactive) | 85.7 µM (inactive) | > 100 µM (inactive) | > 100 µM (inactive) | > 100 µM (inactive) | > 100 µM (inactive) | > 100 µM (inactive) | > 100 µM (inactive) | 58.1 µM (inactive) | > 100 µM (inactive) | > 100 µM (inactive) | > 100 µM (inactive) | > 100 µM (inactive) | > 100 µM (inactive)
CNC(Cc1ccccc1)c1cccc(OC)c1O (centres undefined) | > 100 µM (inactive) | > 100 µM (inactive) | > 100 µM (inactive) | 98.2 µM (inactive) | > 100 µM (inactive) | > 100 µM (inactive) | 5 µM (inactive) | > 100 µM (inactive) | 18.6 µM (inactive) | > 100 µM (inactive) | 60.5 µM (inactive) | > 100 µM (inactive) | > 100 µM (inactive) | > 100 µM (inactive) | > 100 µM (inactive) | > 100 µM (inactive) | > 100 µM (inactive) | > 100 µM (inactive) | –
O=c1c2ccccc2[nH]c2c(Cl)cc(Cl)c(NC3CCCCC3)c12 | 16.9 µM (inactive) | 22.6 µM (inactive) | 23 µM (inactive) | 22.4 µM (inactive) | – | 31.5 µM (inactive) | 31.1 µM (inactive) | – | 23.6 µM (inactive) | 16.8 µM (inactive) | 14.2 µM (inactive) | 27.5 µM (inactive) | 15.6 µM (inactive) | 20.7 µM (inactive) | 29.9 µM (inactive) | 12 µM (inactive) | 24.2 µM (inactive) | 22.2 µM (inactive) | > 10 µM (inactive)
CSC1=Nc2ccccc2-c2nc(-c3ccccc3)cc(-c3ccccc3)c2C1 | 22.2 µM (inactive) | 15.7 µM (inactive) | > 100 µM (inactive) | 30.8 µM (inactive) | – | 12.4 µM (inactive) | 10.4 µM (inactive) | 5.12 µM (inactive) | 28.1 µM (inactive) | – | – | 39.7 µM (inactive) | 12.4 µM (inactive) | 9.98 µM (inactive) | 16 µM (inactive) | 31.3 µM (inactive) | 13.6 µM (inactive) | 16.2 µM (inactive) | > 100 µM (inactive)
O=C1/C(=C/c2cccs2)N=C(c2ccccc2)N1c1nc2ccccc2s1 | > 100 µM (inactive) | 86.9 µM (inactive) | 11.7 µM (inactive) | 47.5 µM (inactive) | – | 14 µM (inactive) | 57.3 µM (inactive) | 68.5 µM (inactive) | > 100 µM (inactive) | > 100 µM (inactive) | > 100 µM (inactive) | 53.3 µM (inactive) | > 100 µM (inactive) | 62.1 µM (inactive) | 41.5 µM (inactive) | 33.6 µM (inactive) | > 100 µM (inactive) | > 100 µM (inactive) | 0.162 µM (active)
COc1cc(CC(C)=O)cc(OC)c1 | 41 µM (inactive) | 65.6 µM (inactive) | 24.7 µM (inactive) | 33.3 µM (inactive) | 51.2 µM (inactive) | – | 53.8 µM (inactive) | > 100 µM (inactive) | > 100 µM (inactive) | – | 56.5 µM (inactive) | 52.5 µM (inactive) | 76.7 µM (inactive) | > 100 µM (inactive) | > 100 µM (inactive) | 26.6 µM (inactive) | 91 µM (inactive) | > 100 µM (inactive) | 29.8 µM (inactive)
COC(=O)C1CC2CCC1(O[Si](C(C)C)(C(C)C)C(C)C)C(O)C2 (centres undefined) | 16.2 µM (inactive) | 26.4 µM (inactive) | 10.9 µM (inactive) | 12.4 µM (inactive) | 54.2 µM (inactive) | 38.5 µM (inactive) | 25.8 µM (inactive) | 33.7 µM (inactive) | – | 15.1 µM (inactive) | 17.3 µM (inactive) | 26.9 µM (inactive) | 22.8 µM (inactive) | 14.9 µM (inactive) | 16.8 µM (inactive) | 13.6 µM (inactive) | 20 µM (inactive) | – | 24.3 µM (inactive)
Cn1c2ccccc2c(=O)c2cccc(C(=O)NC(CS)C(=O)O)c21 (centres undefined) | > 100 µM (inactive) | 84.9 µM (inactive) | 63.4 µM (inactive) | 52.1 µM (inactive) | > 100 µM (inactive) | 32.8 µM (inactive) | > 100 µM (inactive) | > 100 µM (inactive) | > 100 µM (inactive) | > 100 µM (inactive) | > 100 µM (inactive) | > 100 µM (inactive) | > 100 µM (inactive) | > 100 µM (inactive) | > 100 µM (inactive) | 52.8 µM (inactive) | > 100 µM (inactive) | > 100 µM (inactive) | –
O=C1CCCC/C1=C\c1ccc([N+](=O)[O-])cc1 | > 10 µM (inactive) | 1.96 µM (inactive) | 5.48 µM (inactive) | 2.82 µM (inactive) | – | 18.5 µM (inactive) | 23.6 µM (inactive) | 35.4 µM (inactive) | 15.5 µM (inactive) | 21.5 µM (inactive) | 27.5 µM (inactive) | 23.3 µM (inactive) | 24 µM (inactive) | 19.4 µM (inactive) | 25.5 µM (inactive) | 20.2 µM (inactive) | 18.2 µM (inactive) | 8.67 µM (inactive) | 2.91 µM (inactive)
